IC50 data for 31 molecules are collected here from patent publication EP4620466A1, “TRIMETHOXYSTYRYL DERIVATIVES FOR USE IN THE TREATMENT OF PACLITAXEL-RESISTANT CANCER” (Instituto de Investigación Biomédica de Salamanca De la …, priority 2024, dated 2025).

The subject of the first test is HeLa cells. The test is described as follows: Cell proliferation assay (XTT), cytostatic activity. The class given is cell-based. The settings on record: 72-h treatment, XTT cell proliferation kit. The procedure: […] cells were seeded in 96-well plates and incubated in the presence or the absence of the indicated compounds at concentrations ranging from 10^-5 to 10^-12 M. The cytostatic activity was measured after 72-h treatments using the XTT (sodium 3'-[1-(phenylaminocarbonyl)-3,4-tetrazolium]-bis(4- methoxy-6-nitro)-benzenesulfonic acid hydrate) cell proliferation kit (Roche Molecular Biochemicals; Mannheim, Germany) following the manufacturer's specifications. Each condition was seeded in triplicate, and experiments were repeated three times to calculate IC values by non-linear regression fitting the data.
Background: Formazan colour is commonly taken as a measure of viable cells.
One may read the IC50 as the midpoint of a concentration-inhibition curve. Read a high IC50 as lower potency. In the case of `COc1ccc(C(C)c2ccc3c(c2)c(C=NN)cn3C)c(OC)c1OC` (stereo not shown) [Compound 22], half-maximal inhibition (IC50) was put at 420 nM. Regarding “1-Methyl-5-(2,3,4- trimethoxybenzoyl)-1H-indole-3-carbonitrile [Compound 26]”, the IC50 was > 1000 nM. For “5-(N-(3,5-dimethoxyphenyl)sulfamoyl)-1-methyl-1H-indole-3-carboxamide [Compound 54]”, the IC50 came to 1770 nM.

The test is the same for the next values; noted with them: Homo sapiens, 72-h treatment, XTT cell proliferation kit.
For `C=C(c1cc(Cl)nc(SC)c1)c1ccc2c(c1)c(C=O)cn2C` [Compound 68, 5-(1-(2-chloro-6-(methylsulfanyl)pyridin-4-yl)vinyl)-1-methyl-1H-indole-3-carbaldehyde], half-maximal inhibition (IC50) was put at 70 nM. Still for that read-out and setting: as for `C=C(c1cc(SC)nc(N(C)C)c1)c1ccc2c(c1)c(C=O)cn2C` [Compound 93, 5-(1-(2-(dimethylamino)-6-(methylthio)pyridin-4-yl)vinyl)-1-methyl-1H-indole-3-carbaldehyde], the figure is 300 nM; as for `C=C(c1cc(Cl)nc(SC)c1)c1ccc2c(c1)c(C(=O)O)cn2C` [Compound 72, 5-(1-(2-Chloro-6-(methylsulfanyl)pyridin-4-yl)vinyl)-1-methyl-1H-indole-3-carboxylic acid], 80 nM.

`CSc1cc(C(=O)c2ccc3c(ccn3C)c2)cc(N(C)C)n1` [Compound 89, (2-(dimethylamino)-6-(methylthio)pyridin-4-yl)(1-methyl-1H-indol-5-yl)methanone] had an IC50 of 500 nM. As to `C=C(c1cc(SC)nc(N(C)C)c1)c1ccc2c(c1)c(C(N)=O)cn2C` [Compound 97, 5-(1-(2-(dimethylamino)-6-(methylthio)pyridin-4-yl)vinyl)-1-methyl-1H-indole-3-carboxamide], half-maximal inhibition (IC50) required 600 nM. Take `C=C(c1cc(OC)nc(SC)c1)c1ccc2c(c1)c(C(=O)O)cn2C` [Compound 86, 5-(1-(2-methoxy-6-(methylsulfanyl)pyridin-4-yl)vinyl)-1-methyl-1H-indole-3-carboxylic acid]: the IC50 was > 1000 nM. For the molecule `COc1cc(C(=NO)c2ccc3c(ccn3C)c2)cc(SC)n1` [Compound 83, (2-methoxy-6-(methylsulfanyl)pyridin-4-yl)(1-methyl-1H-indol-5-yl)methanone oxime], the IC50 was 200 nM.

`C=C(c1cc(OC)c(OC)c(OC)c1)c1ccc2c(ccn2C)c1` [Compound 5, 1-methyl-5-(1-(3,4,5-trimethoxyphenyl)vinyl)-1H-indole] yielded an IC50 of 2.7 nM. `C=C(c1cc(SC)nc(SC)c1)c1ccc2c(c1)c(C#N)cn2C` [Compound 79, 5-(1-(2,6-bis(methylsulfanyl)pyridin-4-yl)vinyl)-1-methyl-1H-indole-3-carbonitrile] showed an IC50 of 600 nM. With `C=C(c1cc(OC)c(OC)c(OC)c1)c1ccc2c(c1)c(C=NN)cn2C` [Compound 21, (1-Methyl-5-[1-(3,4,5-trimethoxyphenyl)vinyl]-1H-indol-3-yl)methylene hydrazine], the IC50 is 38 nM. In turn, `COc1cc(C(=O)c2ccc3c(c2)c(C(=O)O)cn3C)cc(OC)c1OC` [Compound 15, 1-Methyl-5-(3,4,5-trimethoxybenzoyl)-1H-indole-3-carboxylic acid] gave an IC50 of 7000 nM.

The molecule `C=C(c1cc(SC)nc(N(C)C)c1)c1ccc2c(c1)c(C(=O)O)cn2C` [Compound 94, 5-(1-(2-(dimethylamino)-6-(methylthio)pyridin-4-yl)vinyl)-1-methyl-1H-indole-3-carboxylic acid] had an IC50 of 700 nM.

`C=C(c1cc(Cl)nc(SC)c1)c1ccc2c(c1)c(C(N)=O)cn2C` [Compound 70, 5-(1-(2-chloro-6-(methylsulfanyl)pyridin-4-yl)vinyl)-1-methyl-1H indole-3-carboxamide]: the IC50 is > 1000 nM. As for `COc1ccc(C(=O)c2ccc3c(c2)c(C=O)cn3C)c(OC)c1OC` [Compound 10, 1-Methyl-5-(2,3,4-trimethoxybenzoyl)-1H-indole-3-carbaldehyde], half-maximal inhibition (IC50) was put at 780 nM.

For the molecule `C=C(c1cc(SC)nc(SC)c1)c1ccc2c(c1)c(C(N)=O)cn2C` [Compound 78, 5-(1-(2,6-bis(methylsulfanyl)pyridin-4-yl)vinyl)-1-methyl-1H-indole-3-carboxamide], it took 600 nM to reach half-maximal inhibition (IC50).

The molecule `COc1cc(C(=O)c2ccc3c(c2)c(C=O)cn3C)cc(OC)c1OC` [Compound 9, 1-Methyl-5-[1-(3,4,5-trimethoxybenzoyl)]-1H-indole-3-carbaldehyde] showed an IC50 of 320 nM. On to `C=C(c1cc(OC)c(OC)c(OC)c1)c1ccc2c(c1)c(CO)cn2C` [Compound 17, 1-Methyl-5-[1-(3,4,5-trimethoxyphenyl)vinyl]-1H-indol-3-ylmethanol], for which the IC50 turned out to be 310 nM. The molecule `C=C(c1cc(OC)c(OC)c(OC)c1)c1ccc2c(c1)c(C#N)cn2C` [Compound 23, 1-Methyl-5-[1-(3,4,5-trimethoxyphenyl)vinyl]-1H-indole-3-carbonitrile] came in with an IC50 of 2.9 nM. With `CSc1cc(C(=O)c2ccc3c(c2)c(C=O)cn3C)cc(SC)n1` [Compound 76, 5-(2,6-bis(methylsulfanyl)isonicotinoyl)-1-methyl-1H-indole-3-carbaldehyde], the IC50 is > 1000 nM.

In turn, `C=C(c1cc(OC)nc(SC)c1)c1ccc2c(ccn2C)c1` [Compound 82, 5-(1-(2-methoxy-6-(methylsulfanyl)pyridin-4-yl)vinyl)-1-methyl-1H-indole] returned an IC50 of 600 nM. For the molecule `C=C(c1ccc2c(c1)c(C=O)cn2C)c1ccc(OC)c(OC)c1OC` [Compound 12, 1-Methyl-5-[1-(2,3,4-trimethoxyphenyl)vinyl]-1H-indole-3-2carbaldehyde], 32 nM corresponded to half-maximal inhibition (IC50). Molecule `CSc1cc(C(=NO)c2ccc3c(ccn3C)c2)cc(Cl)n1` (mixture of isomers) [Compound 66, (E/Z)-(2-chloro-6-(methylsulfanyl)pyridin-4-yl) (1-methyl-1H-indol-5-yl)methanone oxime] returned an IC50 of 300 nM. Molecule `C=C(c1cc(Cl)nc(Cl)c1)c1ccc2c(c1)c(C(N)=O)cn2C` [Compound 63, 5-(1-(2,6-dichloropyridin-4-yl)vinyl)-1-methyl-1H-indole-3-carboxamide] gave an IC50 of 50 nM. Regarding `Cn1cc(C#N)c2cc(C(=NO)c3cc(Cl)nc(Cl)c3)ccc21` [Compound 60, 5-((2,6-dichloropyridin-4-yl)(hydroxyimino)methyl)-1-methyl-1H-indole-3-carbonitrile], the IC50 is > 1000 nM. `Cn1ccc2cc(C(=O)c3cc(Cl)nc(Cl)c3)ccc21` [Compound 55, (2,6-dichloropyridin-4-yl)(1-methyl-1H-indol-5-yl)methanone] came in with an IC50 of 800 nM.

Turning to `CSc1cc(C(=O)c2ccc3c(ccn3C)c2)cc(SC)n1` [Compound 73, (2,6-Bis(methylsulfanyl)pyridin-4-yl) (1-methyl-1H-indol-5-yl)methanone], the IC50 was determined as 200 nM.

For `C=C(c1cc(Cl)nc(N(C)C)c1)c1ccc2c(c1)c(C=O)cn2C` [Compound 101, 5-(1-(2-chloro-6-(dimethylamino)pyridin-4-yl)vinyl)-1-methyl-1H-indole-3-carbaldehyde], the IC50 was > 1000 nM. In turn, `C=C(c1cc(SC)nc(SC)c1)c1ccc2c(ccn2C)c1` [Compound 74, 5-(1-(2,6-Bis(methylsulfanyl)pyridin-4-yl)vinyl)-1-methyl-1H-indole] yielded a half-inhibitory concentration (IC50) of 500 nM.
